IC50 data for one compound are collected here from US5888972A, “Peptide compounds, their preparation and uses” (Fujisawa Pharmaceutical Co., Ltd., priority 1993, dated 1999).

What is called IC50 is the concentration that inhibits the measured activity by half.

This assay addresses endothelin receptors. The assay is described as follows: Radioligand binding assay: [^125 I]ET-1 binding in porcine kidney membrane. The conditions noted are these: membranes from inner medulla of porcine kidney; [^125 I]ET-1 16 pM; 60 minutes at 23° C.; read-out: Effect on specific binding of [^125 I]ET-1 in porcine kidney membrane, IC50. Here is the method: Radioligand binding assay:
(a) Crude receptor membrane preparation:
Membranes as endothelin receptors were isolated from inner medulla of porcine kidney. The inner medulla of porcine kidney was placed in ice-cold buffer (0.25M sucrose, 5 mM Tris-HCl, 0.1 mM EDTA, pH 7.5). The inner medulla was homogenized in five volumes (w/v) of ice-cold buffer using a Brinkman Polytron PT-10 at a setting of 16,000 rpm for three 10-sec periods. The homogenate was centrifuged at 10,000×g for 20 minutes at 4° C. The pellet was discarded and the supernatant was centrifuged at 100,000×g for 60 minutes at 4° C. […]
To determine [^125 I]ET-1 binding to kidney, membrane suspensions prepared from kidney (10 μg of protein) were incubated by constant shaking for 60 minutes at 23° C. with [^125 I]ET-1 (range, 4-900 pM) in a total volume of 250 μl of buffer 1 that contained 0.1 mg/ml of bovine serum albumin. […] The filter disks were washed three times with 0.2 ml of ice-cold 50 mM Tris-HCl buffer (pH 7.5), and the radioactivity was counted in a gamma counter (Hewlett-Packard) with an efficiency of 71%. […] The Kd was determined by Scatchard analysis. […]

Take `CC(C)C[C@@H](C(=O)N[C@H](Cc1cccc2ccccc12)C(=O)N[C@@H](C(=O)O)C(C)C)N(CCN(C)Cc1cccnc1)C(=O)Cc1ccccc1Cl` [Compound A]: the IC50 turned out to be 68 nM.
